For one compound, binding results are on record in PMC6115404 (2018).

Each structure is given as a SMILES string.

For the test, the system named is bcl2Mid (DNA, G4) GGGCGCGGGAGGAATTGGGCGGG
The experiment in a line: native PAGE. Particulars: K+ (25 mM K-phosphate, 70 mM KCl); samples pH 7.0; gel in TBE pH 8.0; higher-order assemblies at all equivalents.

Regarding `NCCNCCN.NCCNCCN.NCCNCCN.[Pt+2].[Pt+2].[Pt+2].c1cc(-c2ccc(N(c3ccc(-c4ccncc4)cc3)c3ccc(-c4ccncc4)cc3)cc2)ccn1`, the binding entry is listed as “yes”.
